Laboratory results from US20150099709A1, “GHRELIN RECEPTOR AGONISTS FOR THE TREATMENT OF ACHLORHYDRIA” (RaQualia Pharma Inc., priority 2012, published 2015).

Tested on: intra-gastric pH
Assay: Measurement of intra-gastric pH in dogs (gastric fistula, pH electrode)
Format: in vivo, dog
Details: for change of intra-gastric pH value after dosing / time for which the low intra-gastric pH is maintained: dogs, orally, dose not given
Experimental: Male beagle dogs are used. A metallic cannula is placed in on the left side of the abdomen at the lowest part of the distal gastric corpus region near the greater curvature by a surgical operation. Intra-gastric pH is measured continuously by a flexible pH electrode inserted via the gastric fistula. Vehicle or drugs are administered orally to the dogs.
Compound A 3 mg/kg is orally administered to dogs in a similar way described in Example 1. Intra-gastric pH value is between 2 and 7 in the vehicle-treated conscious dogs.

Question: Which “time for which the low intra-gastric pH value is maintained” value (male beagle dogs, 3 mg/kg orally) does the source give for CN1N=C2CCN(C(=O)[C@@H](COCc3ccccc3)NC(=O)C(C)(C)N)C[C@@]2(Cc2ccccc2)C1=O [Compound A, 2-amino-N-[2-(3a-(R)-benzyl-2-methyl-3-oxo-2,3,3a,4,6,7-hexahydropyrazolo[4,3-c]pyridin-5-yl)-1-(R)-benzyloxymethyl-2-oxo-ethyl]isobutyramide] here?
Answer: The value was “more than 3 hours”.

Question: What about the “intra-gastric pH value maintained after administration” value (male beagle dogs, 3 mg/kg orally, both dogs) of the same molecule?
Answer: The value was “below 2.5”.

Question: What about the “change of intra-gastric pH value after administration” value (male beagle dogs, 3 mg/kg orally, conscious, FIG. 2) of the same molecule?
Answer: The value was “rapidly decreases after the administration”.

Question: What does the source list for CC(C)(N)C(=O)N[C@H](COCc1ccc(F)cc1F)C(=O)N1CCC2=NN(CC(F)(F)F)C(=O)[C@]2(Cc2ccccn2)C1 [Compound B, 2-amino-N-[1-(R)-(2,4-difluoro-benzyloxymethyl)-2-oxo-2-(3-oxo-3a-(R)-pyridin-2-ylmethyl-2-(2,2,2-trifluoro-ethyl)-2,3,3a,4,6,7-hexahydropyrazolo[4,3-c]pyridin-5-yl)-ethyl]-2-methyl-propionamide]?
Answer: change of intra-gastric pH value after dosing: decreases soon just after dosing; time for which the low intra-gastric pH is maintained: more than 3 hours

Question: C[C@@H]1CN[C@@H](C2CC2)C(=O)N(C)[C@H](C)C(=O)N[C@H](Cc2ccc(F)cc2)C(=O)NCCCc2ccccc2O1 [Compound E, (2R,5S,8R,11R)-5-cyclopropyl-11-(4-fluorobenzyl)-2,7,8-trimethyl-4,5,7,8,10,11,13,14,15,16-decahydro-2H-benzo[q][1,4,7,10,13]oxatetraazacyclooctadecine-6,9,12(3H)-trione] was tested. Which “change of intra-gastric pH value after dosing” value did it give?
Answer: The value was “decreases soon just after dosing”.

Question: What about the “time for which the low intra-gastric pH is maintained” value of the same molecule?
Answer: Its value is “more than 3 hours”.

Question: Which results are given for CN(C)N(C)C(=O)[C@@]1(Cc2ccccc2)CCCN(C(=O)[C@@H](Cc2c[nH]c3ccccc23)NC(=O)C(C)(C)N)C1 [Compound C]?
Answer: change of intra-gastric pH value after dosing: decreases soon just after dosing; time for which the low intra-gastric pH is maintained: more than 3 hours

Question: Which “change of intra-gastric pH value after dosing” value does the source give for CN(C(=O)/C=C/CC1(N)CCC1)[C@H](Cc1ccc(-c2ccccc2)cc1)C(=O)N(C)[C@H](Cc1ccccc1)C(=O)N1CCC(O)CC1 [Compound D, (E)-N—((R)-3-([1,1′-biphenyl]-4-yl)-1-(((R)-1-(4-hydroxypiperidin-1-yl)-1-oxo-3-phenylpropan-2-yl)(methyl)amino)-1-oxopropan-2-yl)-4-(1-aminocyclobutyl)-N-methylbut-2-enamide] here?
Answer: The value was “decreases soon just after dosing”.

Question: What about the “time for which the low intra-gastric pH is maintained” value of the same molecule?
Answer: Its value is “more than 3 hours”.
